How the values were obtained:
Format in all cases: in vivo
[1] = tested on: Housefly [Musca domestica]; assay: Housefly insecticidal test (HF); details: per 25 female houseflies, 48 hours
[2] = tested on: Tobacco Budworm [Heliothis virescens (Fabricius)]; assay: Tobacco budworm contact test (TBW-C); details: second-instar larvae, 5 days, percent in solution
Summary of the method: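 Cotton cotyledons dipped 2–3 s in compound in 50:50 acetone–water, dried, then infested with 5 second-instar larvae and held 5 days at high humidity before scoring mortality.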

[3] = tested on: Tobacco Budworm [Heliothis virescens (Fabricius)] eggs; assay: Tobacco budworm egg test (TBW-E); details: percent in solution
[4] = tested on: Cabbage Looper [Trichoplusia ni (Hubner)]; assay: Cabbage looper test (CL); details: second-instar larvae, 3-5 days, percent in solution
[5] = tested on: Aster Leafhopper [Macrosteles fascifrens (Stal)]; assay: Aster leafhopper test (LH); details: adults/nymphs, 48 hours, percent in solution
[6] = tested on: Maize weevil [Sitophilus Zeamais (Motschulsky)]; assay: Maize weevil test (MW); details: adult weevils, treated corn seeds, 48 hours, percent in solution
Summary of the method: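 Adult weevils (10) were placed with four corn seeds that had been dipped 2-3 s in compound dissolved in 50:50 acetone:water, then dried, and held at about 25° C. Mortality was scored at 48 h. LC50 was taken from dosage-mortality curves and expressed as percent compound in solution, from a 0.01% top concentration.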

[7] = tested on: Rice water weevil [Lissorhoptrus oryzophilus (Kuschel)]; assay: Rice water weevil test (RWW); details: per weevil, topical, female adults, 48 hours
Experimental: The compounds in Tables 1 and 2 above were tested for insecticidal activity using the following testing procedures. LC50 values, based on the results of these tests and calculated according to dosage-mortality curves, are expressed in Table 3.
Rice water weevil [Lissorhoptrus oryzophilus (Kuschel)]
Test compounds were diluted in acetone. Droplets (1 ul) of test solutions were applied to the ventral abdomens of ten female adult weevils. The treated weevils were placed in containers with wet cotton balls and rice foliage. The containers were covered and kept at a temperature of about 25° C. Mortality was recorded after 48 hours. […] The LC50 values are expressed below in Table 3 under the heading "RWW" in terms of μg of test compound per weevil.

[8] = tested on: Beet Armyworm (Spodoptera exigua); assay: Beet armyworm test (BAW); details: second-instar larvae, five days, percent in solution
Summary of the method: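 Sugar beet leaves were dipped 2-3 s in compound diluted in 50-50 acetone-water, dried, then infested with five second-instar larvae in humid dishes. Mortality was scored after five days at concentrations from 0.1% downward. LC50 was taken from dosage-mortality curves as percent compound in solution.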

CC(C)C(=Nc1ccc(F)c(F)c1)OCc1ccc(F)c(Oc2ccc(Cl)cc2)c1 [Compound 295]
LC50 HF [1]: 7.8 µg | LC50 TBW C [2]: 0.0005% | LC50 TBW E [3]: 0.01% | LC50 CL [4]: 0.00004% | LC50 LH [5]: 0.0001% | LC50 MW [6]: 0.0053% | LC50 RWW [7]: > 2.5 µg

CC(C)C(=Nc1ccc(F)c(Cl)c1F)OCc1cccc(Oc2ccc(Cl)cc2)c1 [Compound 331]
LC50 HF [1]: 20 µg | LC50 TBW C [2]: 0.0004% | LC50 TBW E [3]: 0.04% | LC50 BAW [8]: 0.002% | LC50 CL [4]: 0.0002% | LC50 RWW [7]: > 2.5 µg

CC(C)C(=Nc1ccc2c(c1)OC(F)(F)O2)OCc1ccc(F)c(Oc2ccccc2)c1 [Compound 285]
LC50 HF [1]: 36 µg | LC50 TBW C [2]: 0.00017% | LC50 TBW E [3]: 0.005% | LC50 BAW [8]: 0.0006% | LC50 CL [4]: 0.000075% | LC50 MW [6]: 0.005% | LC50 RWW [7]: 0.13 µg

CC(C)C(=Nc1ccc(F)c(I)c1)OCc1ccc(F)c(Oc2ccc(F)cc2)c1 [Compound 281]
LC50 HF [1]: 5 µg | LC50 TBW C [2]: 0.00025% | LC50 TBW E [3]: 0.006% | LC50 BAW [8]: 0.0027% | LC50 CL [4]: 0.00002% | LC50 MW [6]: 0.005% | LC50 RWW [7]: > 2.5 µg

CC(C)C(=Nc1ccc2c(c1)OC(F)(F)O2)OCc1cccc(Oc2ccccc2)c1 [Compound 245]
LC50 HF [1]: 20 µg | LC50 TBW C [2]: 0.0015% | LC50 TBW E [3]: 0.016% | LC50 BAW [8]: 0.001% | LC50 CL [4]: 0.0035% | LC50 MW [6]: 0.006% | LC50 RWW [7]: > 2.5 µg

CC(C)C(=Nc1ccc(OC(F)(F)F)cc1)OCc1ccc(F)c(Oc2ccccc2)c1 [Compound 338]
LC50 HF [1]: 26 µg | LC50 TBW C [2]: 0.00037% | LC50 TBW E [3]: 0.01% | LC50 CL [4]: 0.000065% | LC50 MW [6]: 0.0053% | LC50 RWW [7]: 0.044 µg

CC(C)C(=Nc1ccc(C(F)(F)F)cc1)OCc1ccc(F)c(Oc2ccc(Cl)cc2)c1 [Compound 324]
LC50 HF [1]: > 100 µg | LC50 TBW C [2]: 0.0004% | LC50 TBW E [3]: 0.025% | LC50 BAW [8]: 0.0024% | LC50 CL [4]: 0.00014% | LC50 RWW [7]: 0.06 µg

CC(C)C(=Nc1ccc(F)c(Br)c1)OCc1ccc(F)c(Oc2ccc(Cl)cc2)c1 [Compound 298]
LC50 HF [1]: 13 µg | LC50 TBW C [2]: 0.0008% | LC50 TBW E [3]: 0.015% | LC50 CL [4]: 0.0001% | LC50 LH [5]: 0.0001% | LC50 MW [6]: 0.008% | LC50 RWW [7]: > 2.5 µg

CC(C)C(=Nc1ccc(Cl)c(Cl)c1)OCc1ccc(F)c(Oc2ccc(Cl)cc2)c1 [Compound 296]
LC50 HF [1]: 38 µg | LC50 TBW C [2]: 0.00045% | LC50 TBW E [3]: 0.025% | LC50 CL [4]: 0.00025% | LC50 LH [5]: 0.0003% | LC50 RWW [7]: 0.14 µg

CC(C)C(=Nc1ccc(F)cc1)OCc1ccc(F)c(Oc2ccc(Cl)cc2)c1 [Compound 325]
LC50 HF [1]: 5 µg | LC50 TBW C [2]: 0.0006% | LC50 TBW E [3]: 0.037% | LC50 BAW [8]: 0.0025% | LC50 CL [4]: 0.00012% | LC50 RWW [7]: > 2.5 µg

CCC(=Nc1ccc(F)c(Cl)c1)OCc1cccc(Oc2ccccc2)c1 [Compound 85]
LC50 HF [1]: 7 µg | LC50 TBW E [3]: > 0.1% | LC50 CL [4]: 0.004% | LC50 LH [5]: 0.003% | LC50 MW [6]: > 0.01% | LC50 RWW [7]: > 2.5 µg

CC(C)C(=Nc1ccc(F)c(Cl)c1F)OCc1ccc(F)c(Oc2ccc(F)cc2)c1 [Compound 330]
LC50 HF [1]: 5 µg | LC50 TBW C [2]: 0.00035% | LC50 TBW E [3]: 0.037% | LC50 CL [4]: 0.00012% | LC50 LH [5]: < 0.05% | LC50 MW [6]: 0.001% | LC50 RWW [7]: 0.06 µg

CC(C)C(=Nc1ccc(F)c(C(F)(F)F)c1)OCc1ccc(F)c(Oc2ccccc2)c1 [Compound 300]
LC50 HF [1]: 14 µg | LC50 TBW C [2]: 0.001% | LC50 TBW E [3]: 0.024% | LC50 CL [4]: 0.0003% | LC50 LH [5]: 0.00002% | LC50 MW [6]: 0.01% | LC50 RWW [7]: 0.075 µg

CC(C)C(=Nc1ccc(F)c(Cl)c1)OCc1cccc(Oc2ccc(F)cc2)n1 [Compound 461]
LC50 HF [1]: 6 µg | LC50 TBW E [3]: 0.01% | LC50 BAW [8]: 0.0035% | LC50 CL [4]: 0.00008% | LC50 MW [6]: 0.0075% | LC50 RWW [7]: > 2.5 µg

CC(C)C(=Nc1ccc(F)c(Cl)c1)OCc1cccc(Oc2cccc(F)c2)c1 [Compound 125]
LC50 HF [1]: 12 µg | LC50 TBW E [3]: 0.025% | LC50 CL [4]: 0.0007% | LC50 LH [5]: > 0.05% | LC50 MW [6]: > 0.01% | LC50 RWW [7]: > 2.5 µg

CC(C)C(=Nc1ccc(F)c(Cl)c1)OCc1cccc(Oc2ccc(F)cc2F)c1 [Compound 191]
LC50 HF [1]: 29 µg | LC50 TBW E [3]: 0.04% | LC50 CL [4]: 0.00023% | LC50 LH [5]: > 0.05% | LC50 MW [6]: 0.004% | LC50 RWW [7]: > 2.5 µg

CC(C)C(=Nc1c(F)c(F)c(F)c(F)c1F)OCc1cccc(Oc2ccc(F)cc2)c1 [Compound 198]
LC50 HF [1]: 52 µg | LC50 TBW E [3]: > 0.1% | LC50 CL [4]: 0.0005% | LC50 LH [5]: 0.05% | LC50 MW [6]: 0.003% | LC50 RWW [7]: > 2.5 µg

FC(F)(F)c1cccc(N=C(OCc2cccc(Oc3ccccc3)c2)C(Cl)Cl)c1 [Compound 66]
LC50 HF [1]: 9.7 µg | LC50 TBW E [3]: 0.06% | LC50 BAW [8]: 0.0065% | LC50 CL [4]: < 0.0025% | LC50 LH [5]: 0.001% | LC50 RWW [7]: > 2.5 µg

CC(C)C(=Nc1ccc(F)c(Cl)c1F)OCc1ccc(F)c(Oc2ccccc2)c1 [Compound 451]
LC50 HF [1]: 3.6 µg | LC50 TBW C [2]: 0.00025% | LC50 TBW E [3]: > 0.1% | LC50 CL [4]: 0.0001% | LC50 LH [5]: 0.0002% | LC50 MW [6]: 0.0051% | LC50 RWW [7]: 0.065 µg
